Key:
[1] = (§1) Ratio of drug level in brain to plasma in mouse; format: ADME, organism-based; conditions: brain and plasma, read-out: BPR
Mus musculus = test: Oral bioavailability in mouse; format: ADME, organism-based; conditions: in vivo
[2] = Metabolic stability of the compound in simulated gastric fluid; format: physicochemical; conditions: simulated gi fluid
Nucleic Acid = test: as §1; format: ADME, organism-based; conditions: brain

Row | Structure (SMILES) | Kp [1] | F (Mus musculus) [%] | Stability [2] | BPR (Nucleic Acid)
1 | COc1cc(/C=N/NC(=O)C(OC)c2ccc(N3CCOCC3)cc2)cc(OC)c1Br (single isomer, unassigned; enantiomer 1) | 0.27 | 91 |  | 
2 | COc1cc(/C=N/NC(=O)C(OC)c2ccc(-n3cccn3)cc2)cc(OC)c1Br (stereo in doubt; 61) |  | 92 | Stable | 0.12
3 | COc1cc(/C=N/NC(=O)C(OC)c2ccc(N3CCOCC3)cc2)cc(OC)c1Br (racemic) |  | 63 | Stable | 0.37
4 | COc1cc(/C=N/NC(=O)C(OC)c2ccc(-n3cccn3)cc2)cc(OC)c1Br (racemic) |  | 48 |  | 0.39

Source: ChEMBL document CHEMBL2069174, “Novel 2-methoxyacylhydrazones as potent, selective PDE10A inhibitors with activity in animal models of schizophrenia” (Bioorg Med Chem Lett, 2012)
